The values that follow come from patent US7582415B2, “Rapid detection of replicating cells” (priority 2001, dated 2009).

Assay [1] deals with E. coli MG1655 (sensitive strain). As to the kind of experiment: microbe, parasite or virus in culture. The note with it: Escherichia coli, MG1655, 5 h, read-out: zone of inhibition, segment of the E-test strip (minimal inhibitory concentration). On the procedure: This minimal inhibitory concentration is based on the visualization of zones with no growth, called the zone of inhibition. The zone of inhibition is traditionally measured by the naked eye after an overnight growth.
Experimental Methods: The strains, used in the example and described in Example 13, were diluted to 10^6 CFU/ml and plated on TSA media. […] The microcolonies growing on or near the test strip were imaged using microcolony autofluorescence and non-magnified large area imaging as in previous examples. After imaging, the plates were allowed to incubate overnight.

In assay [2] the test system is E. coli MG1655/pLafr I (resistant strain). Kind of assay: E-test strip susceptibility test with autofluorescent microcolony imaging. The assay is classed as cell-based. The conditions noted are these: E-test strip 0.016-256 μg tetracycline, TSA, 5 hours at 37° C. On the procedure: After imaging, the plates were allowed to incubate overnight.

≈ marks a conversion by molar mass, not a printed value.

Regarding `CN(C)[C@@H]1C(O)=C(C(N)=O)C(=O)[C@@]2(O)C(O)=C3C(=O)c4c(O)cccc4[C@@](C)(O)[C@H]3C[C@@H]12` [tetracycline], the MIC in assay [1] was around 2 µg/mL (≈ 4.5 µM). Also, the “segment of the E-test strip near which the strain grows” value in assay [2] is around 256 µg/mL.
